From the NIST ThermoML archive (doi:10.1021/je034159d)
Numbers after ± are expanded uncertainties.

What was measured:
[1] = 313.15 K; 101.33 kPa; Liquid; Vibrating tube method
[2] = refractive index (Na D-line) (dimensionless); conditions: 313.15 K; 101.33 kPa; Liquid; refractometer

Compound	mass density [1]	refractive index [2]
CCOC(=O)OCC [diethyl carbonate]	952.43 ± 0.08 kg/m3	1.3754 ± 0.0001
COC(=O)OC [dimethyl carbonate]	1043.19 ± 0.08 kg/m3	1.359 ± 0.0001
